Test results from ChEMBL document CHEMBL4346716, “Synthesis of novel andrographolide beckmann rearrangement derivatives and evaluation of their HK2-related anti-inflammatory activities” (Eur J Med Chem, 2019).

Legend:
RAW264.7 = assay: Antiinflammatory activity in mouse RAW264.7 cells assessed as inhibition of LPS-induced NO production preincubated for 3 hrs followed by LPS addition measured after 24 hrs by Griess assay; assay type: functional, cell-based
Hexokinase-2 = biological target: T1, Hexokinase-2 (Homo sapiens, UniProt P52789); assay: Inhibition of recombinant human HK2 expressed in Escherichia coli BL21(DE3) using glucose as substrate preincubated for 10 mins followed by substrate addition in presence of ATP by G6PDH/NADP coupled assay
T1 sequence (P52789 whole entry): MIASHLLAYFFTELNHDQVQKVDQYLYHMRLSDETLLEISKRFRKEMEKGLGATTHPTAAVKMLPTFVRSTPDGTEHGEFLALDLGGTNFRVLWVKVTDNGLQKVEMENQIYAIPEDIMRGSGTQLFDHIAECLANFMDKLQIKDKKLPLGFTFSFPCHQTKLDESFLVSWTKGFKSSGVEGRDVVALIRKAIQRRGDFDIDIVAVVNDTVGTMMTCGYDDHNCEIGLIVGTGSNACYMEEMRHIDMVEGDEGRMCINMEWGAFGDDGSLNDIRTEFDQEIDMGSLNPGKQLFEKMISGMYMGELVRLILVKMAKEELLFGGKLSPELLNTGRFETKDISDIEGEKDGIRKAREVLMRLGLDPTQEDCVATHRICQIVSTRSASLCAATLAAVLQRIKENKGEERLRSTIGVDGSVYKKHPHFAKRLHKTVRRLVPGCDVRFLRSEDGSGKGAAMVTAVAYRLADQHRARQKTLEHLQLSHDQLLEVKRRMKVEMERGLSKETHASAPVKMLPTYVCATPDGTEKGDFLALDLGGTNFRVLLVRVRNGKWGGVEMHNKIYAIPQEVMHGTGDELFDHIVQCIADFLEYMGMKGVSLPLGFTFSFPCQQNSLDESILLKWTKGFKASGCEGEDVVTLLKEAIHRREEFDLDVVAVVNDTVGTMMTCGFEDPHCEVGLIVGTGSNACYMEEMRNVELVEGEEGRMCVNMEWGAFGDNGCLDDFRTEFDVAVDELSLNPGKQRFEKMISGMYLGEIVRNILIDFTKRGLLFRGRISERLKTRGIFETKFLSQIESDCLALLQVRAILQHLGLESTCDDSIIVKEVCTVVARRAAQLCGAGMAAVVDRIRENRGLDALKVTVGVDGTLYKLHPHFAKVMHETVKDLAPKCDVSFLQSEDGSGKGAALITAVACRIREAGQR

[1] = compound: C=C1CC[C@H]2[C@@](C)(CCC(=O)N[C@@]2(C)COC(=O)CCCC[C@@H]2CCSS2)[C@@H]1/C=C/C1=CCOC1=O; assay: Non competitive inhibition of recombinant human HK2 expressed in Escherichia coli BL21(DE3) assessed as Vmax using 3.125 uM ATP as substrate by Lineweaver-Burk double reciprocal plot analysis (reference value: 0.019 OD/min)
[2] = compound: C=C1CC[C@H]2[C@@](C)(CCC(=O)N[C@@]2(C)COC(=O)CCCC[C@@H]2CCSS2)[C@@H]1/C=C/C1=CCOC1=O; assay: Non competitive inhibition of recombinant human HK2 expressed in Escherichia coli BL21(DE3) assessed as Vmax using 6.25 uM ATP as substrate by Lineweaver-Burk double reciprocal plot analysis (reference value: 0.019 OD/min)
[3] = compound: C=C1CC[C@H]2[C@@](C)(CCC(=O)N[C@@]2(C)COC(=O)CCCC[C@@H]2CCSS2)[C@@H]1/C=C/C1=CCOC1=O; assay: Non competitive inhibition of recombinant human HK2 expressed in Escherichia coli BL21(DE3) assessed as Vmax using 12.5 uM ATP as substrate by Lineweaver-Burk double reciprocal plot analysis (reference value: 0.019 OD/min)
[4] = compound: C=C1CC[C@H]2[C@@](C)(CCC(=O)N[C@@]2(C)COC(=O)CCCC[C@@H]2CCSS2)[C@@H]1/C=C/C1=CCOC1=O; assay: Non competitive inhibition of recombinant human HK2 expressed in Escherichia coli BL21(DE3) assessed as Km using 3.125 uM ATP as substrate by Lineweaver-Burk double reciprocal plot analysis (reference value: 1.62 mM)
[5] = compound: C=C1CC[C@H]2[C@@](C)(CCC(=O)N[C@@]2(C)COC(=O)CCCC[C@@H]2CCSS2)[C@@H]1/C=C/C1=CCOC1=O; assay: Non competitive inhibition of recombinant human HK2 expressed in Escherichia coli BL21(DE3) assessed as Km using 6.25 uM ATP as substrate by Lineweaver-Burk double reciprocal plot analysis (reference value: 1.62 mM)
[6] = compound: C=C1CC[C@H]2[C@@](C)(CCC(=O)N[C@@]2(C)COC(=O)CCCC[C@@H]2CCSS2)[C@@H]1/C=C/C1=CCOC1=O; assay: Non competitive inhibition of recombinant human HK2 expressed in Escherichia coli BL21(DE3) assessed as Km using 12.5 uM ATP as substrate by Lineweaver-Burk double reciprocal plot analysis (reference value: 1.62 mM)
[7] = compound: C=C1CC[C@H]2[C@@](C)(CCC(=O)N[C@@]2(C)COC(=O)CCCC[C@@H]2CCSS2)[C@@H]1/C=C/C1=CCOC1=O; assay: Non competitive inhibition of recombinant human HK2 expressed in Escherichia coli BL21(DE3) assessed as Vmax using 3.125 uM glucose as substrate by Lineweaver-Burk double reciprocal plot analysis (reference value: 0.012 OD/min)
[8] = compound: C=C1CC[C@H]2[C@@](C)(CCC(=O)N[C@@]2(C)COC(=O)CCCC[C@@H]2CCSS2)[C@@H]1/C=C/C1=CCOC1=O; assay: Non competitive inhibition of recombinant human HK2 expressed in Escherichia coli BL21(DE3) assessed as Vmax using 6.25 uM glucose as substrate by Lineweaver-Burk double reciprocal plot analysis (reference value: 0.012 OD/min)
[9] = compound: C=C1CC[C@H]2[C@@](C)(CCC(=O)N[C@@]2(C)COC(=O)CCCC[C@@H]2CCSS2)[C@@H]1/C=C/C1=CCOC1=O; assay: Non competitive inhibition of recombinant human HK2 expressed in Escherichia coli BL21(DE3) assessed as Vmax using 12.5 uM glucose as substrate by Lineweaver-Burk double reciprocal plot analysis (reference value: 0.012 OD/min)
[10] = compound: C=C1CC[C@H]2[C@@](C)(CCC(=O)N[C@@]2(C)COC(=O)CCCC[C@@H]2CCSS2)[C@@H]1/C=C/C1=CCOC1=O; assay: Non competitive inhibition of recombinant human HK2 expressed in Escherichia coli BL21(DE3) assessed as Km using 3.125 uM glucose as substrate by Lineweaver-Burk double reciprocal plot analysis (reference value: 0.64 mM)
[11] = compound: C=C1CC[C@H]2[C@@](C)(CCC(=O)N[C@@]2(C)COC(=O)CCCC[C@@H]2CCSS2)[C@@H]1/C=C/C1=CCOC1=O; assay: Non competitive inhibition of recombinant human HK2 expressed in Escherichia coli BL21(DE3) assessed as Km using 6.25 uM glucose as substrate by Lineweaver-Burk double reciprocal plot analysis (reference value: 0.64 mM)
[12] = compound: C=C1CC[C@H]2[C@@](C)(CCC(=O)N[C@@]2(C)COC(=O)CCCC[C@@H]2CCSS2)[C@@H]1/C=C/C1=CCOC1=O; assay: Non competitive inhibition of recombinant human HK2 expressed in Escherichia coli BL21(DE3) assessed as Km using 12.5 uM glucose as substrate by Lineweaver-Burk double reciprocal plot analysis (reference value: 0.64 mM)

C=C1CC[C@H]2[C@@](C)(CCC(=O)N[C@@]2(C)COC(=O)[C@@H]2CCCN2)[C@@H]1/C=C/C1=CCOC1=O
IC50 (RAW264.7): > 50 µM | IC50 (Hexokinase-2): > 50 µM

C=C1CC[C@H]2[C@@](C)(CC[C@@H](OC(=O)C(N)CC(C)C)[C@@]2(C)NC=O)[C@@H]1/C=C/C1=CCOC1=O (single isomer, unassigned)
IC50 (RAW264.7): > 50 µM | IC50 (Hexokinase-2): > 50 µM

C=C1CC[C@H]2[C@@](C)(CC[C@@H](OC(=O)c3ccc([N+](=O)[O-])cc3)[C@@]2(C)NC=O)[C@@H]1/C=C/C1=CCOC1=O
IC50 (RAW264.7): > 50 µM | IC50 (Hexokinase-2): > 50 µM

C=C1CC[C@H]2[C@@](C)(CCC(=O)N[C@@]2(C)COC(=O)c2ccccc2[N+](=O)[O-])[C@@H]1/C=C/C1=CCOC1=O
IC50 (RAW264.7): > 50 µM | IC50 (Hexokinase-2): > 50 µM

C=C1CC[C@H]2[C@@](C)(CC[C@@H](OC(=O)CNC)[C@@]2(C)NC=O)[C@@H]1/C=C/C1=CCOC1=O
IC50 (RAW264.7): > 50 µM | IC50 (Hexokinase-2): > 50 µM

C[C@]12CCC(=O)C=C1CC[C@@H]1[C@@H]2[C@@H](O)C[C@@]2(C)[C@H]1CC[C@]2(O)C(=O)CO [HYDROCORTISONE]
IC50 (RAW264.7): 52.4 µM

C=C1CC[C@H]2[C@@](C)(CC[C@@H](OC(=O)c3ccccc3[N+](=O)[O-])[C@@]2(C)NC=O)[C@@H]1/C=C/C1=CCOC1=O
IC50 (RAW264.7): > 50 µM | IC50 (Hexokinase-2): > 50 µM

C=C1CC[C@H]2[C@@](C)(CC[C@@H](OC(=O)[C@@H](N)Cc3ccccc3)[C@@]2(C)NC=O)[C@@H]1/C=C/C1=CCOC1=O
IC50 (RAW264.7): > 50 µM | IC50 (Hexokinase-2): > 50 µM

C=C1CC[C@H]2[C@@](C)(CC[C@@H](OC(=O)c3ccccc3)[C@@]2(C)NC=O)[C@@H]1/C=C/C1=CCOC1=O
IC50 (RAW264.7): 50 µM | IC50 (Hexokinase-2): > 50 µM

C=C1CC[C@H]2[C@@](C)(CCC(=O)N[C@@]2(C)CO)[C@@H]1/C=C/C1=CCOC1=O
IC50 (RAW264.7): > 50 µM | IC50 (Hexokinase-2): > 50 µM

C=C1CC[C@H]2[C@@](C)(CC[C@@H](OC(=O)[C@H]3CCCN3)[C@@]2(C)NC=O)[C@@H]1/C=C/C1=CCOC1=O
IC50 (RAW264.7): > 50 µM | IC50 (Hexokinase-2): 26.1 µM

C=C1CC[C@H]2[C@@](C)(CCC(=O)N[C@@]2(C)COC(=O)c2ccc([N+](=O)[O-])cc2)[C@@H]1/C=C/C1=CCOC1=O
IC50 (RAW264.7): 33.5 µM | IC50 (Hexokinase-2): > 50 µM

C=C1CC[C@H]2[C@@](C)(CC[C@@H](OC(=O)CN)[C@@]2(C)NC=O)[C@@H]1/C=C/C1=CCOC1=O
IC50 (RAW264.7): > 50 µM | IC50 (Hexokinase-2): > 50 µM

C=C1CC[C@H]2[C@@](C)(CCC(=O)N[C@@]2(C)COC(=O)c2cccnc2)[C@@H]1/C=C/C1=CCOC1=O
IC50 (RAW264.7): > 50 µM | IC50 (Hexokinase-2): > 50 µM

C=C1CC[C@H]2[C@@](C)(CC[C@@H](O)[C@@]2(C)NC=O)[C@@H]1/C=C/C1=CCOC1=O
IC50 (RAW264.7): > 50 µM | IC50 (Hexokinase-2): > 50 µM

C=C1CC[C@H]2[C@@](C)(CCC(=O)N[C@@]2(C)COC(=O)[C@H](N)CC(C)C)[C@@H]1/C=C/C1=CCOC1=O
IC50 (RAW264.7): > 50 µM | IC50 (Hexokinase-2): > 50 µM

C=C1CC[C@H]2[C@@](C)(CCC(=O)N[C@@]2(C)COC(=O)c2ccccc2)[C@@H]1/C=C/C1=CCOC1=O
IC50 (RAW264.7): > 50 µM | IC50 (Hexokinase-2): > 50 µM

C=C1CC[C@H]2[C@@](C)(CCC(=O)N[C@@]2(C)COC(=O)[C@H](N)Cc2ccccc2)[C@@H]1/C=C/C1=CCOC1=O
IC50 (RAW264.7): > 50 µM | IC50 (Hexokinase-2): 4.8 µM

C=C1CC[C@H]2[C@@](C)(CC[C@@H](OC(=O)CCCC[C@@H]3CCSS3)[C@@]2(C)NC=O)[C@@H]1/C=C/C1=CCOC1=O
IC50 (RAW264.7): > 50 µM | IC50 (Hexokinase-2): > 50 µM

C=C1CC[C@H]2[C@@](C)(CC[C@@H](OC(=O)c3cccnc3)[C@@]2(C)NC=O)[C@@H]1/C=C/C1=CCOC1=O
IC50 (RAW264.7): > 50 µM | IC50 (Hexokinase-2): > 50 µM

C=C1CC[C@@H]2[C@](C)(CO)[C@H](O)CC[C@@]2(C)[C@@H]1C/C=C1/C(=O)OC[C@H]1O [ANDROGRAPHOLIDE]
IC50 (RAW264.7): 14.4 µM | IC50 (Hexokinase-2): > 50 µM

B1: Hexokinase-2 (Homo sapiens), P52789 (protein)
chain: T1 sequence (P52789 whole entry)
Vmax (optical density/minute) [1]: 0.012 | Vmax (optical density/minute) [2]: 0.007 | Vmax (optical density/minute) [3]: 0.005 | Km [4]: 1280 µM | Km [5]: 1280 µM | Km [6]: 1210 µM | Vmax (optical density/minute) [7]: 0.007 | Vmax (optical density/minute) [8]: 0.005 | Vmax (optical density/minute) [9]: 0.004 | Km [10]: 685 µM | Km [11]: 695 µM | Km [12]: 657 µM
